Source: patent US20160200733A1, “SUBSTITUTED THIENO[2,3-B]PYRIDINE-2-CARBOXAMIDE ANALOGS AS POSITIVE ALLOSTERIC MODULATORS OF THE MUSCARINIC ACETYLCHOLINE RECEPTOR M4” (Vanderbilt University, priority 2013, published 2016)

Target: T1, mAChR hM4 (Homo sapiens, UniProt P08173)
T1 construct: expressed in transfected cells; host or cells: CHO-K1 (Chinese hamster ovary) cells
T1 sequence (P08173 1-479): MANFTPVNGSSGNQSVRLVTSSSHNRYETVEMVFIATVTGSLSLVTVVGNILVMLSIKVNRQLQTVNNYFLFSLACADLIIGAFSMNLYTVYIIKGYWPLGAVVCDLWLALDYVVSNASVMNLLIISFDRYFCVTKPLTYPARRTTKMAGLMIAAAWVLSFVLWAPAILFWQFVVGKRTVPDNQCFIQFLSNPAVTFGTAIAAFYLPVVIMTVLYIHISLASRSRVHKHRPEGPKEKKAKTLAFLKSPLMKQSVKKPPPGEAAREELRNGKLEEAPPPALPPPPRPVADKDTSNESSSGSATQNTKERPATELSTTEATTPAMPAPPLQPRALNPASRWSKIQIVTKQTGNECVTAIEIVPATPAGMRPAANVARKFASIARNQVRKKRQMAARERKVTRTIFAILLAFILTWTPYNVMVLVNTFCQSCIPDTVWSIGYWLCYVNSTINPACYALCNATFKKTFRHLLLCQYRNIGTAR
Assay: mAChR M4 cell-based functional assay (calcium flux, potentiation of EC20 acetylcholine response)
Settings: mAChR hM4 cell-line; for Emax at 30 µM: % ACh maximum at 30 μM; for EC50: >10,000 estimated for low potency compounds lacking a plateau
Excerpt: In one aspect, the disclosed compounds potentiate the agonist response (e.g., acetylcholine) of mAChR M4. In a further aspect, the disclosed compounds increase mAChR M4 response to non-maximal concentrations of agonist in the presence of compound compared to the response to agonist in the absence of compound. […] For example, activation of mAChR M4 activity can be determined by measurement of calcium flux in response to agonist, e.g. acetylcholine, in cells loaded with a Ca^2+-sensitive fluorescent dye (e.g., Fluo-4). In a further aspect, the calcium flux was measured as an increase in fluorescent static ratio. In a yet further aspect, positive allosteric modulator activity was analyzed as a concentration-dependent increase in the EC20 acetylcholine response (i.e. the response of mAChR M4 at a concentration of acetylcholine that yields 20% of the maximal response).
In one aspect, the disclosed compounds activate mAChR M4 response as an increase in calcium fluorescence in mAChR M4-transfected CHO-K1 cells in the presence of the compound, compared to the response of equivalent CHO-K1 cells in the absence of the compound. […] In a further aspect, the mAChR M4-transfected CHO-K1 cells are transfected with human mAChR M4. In a still further aspect, the mAChR M4-transfected CHO-K1 cells are transfected with rat mAChR M4.
Substituted 3-aminothieno[2,3-c]pyridine-2-carboxamide analogs were synthesized as described above. Activity (EC50 and Emax) was determined in the mAChR M4 cell-based functional assay as described above, and the data are shown in Table II for assays conducted using mAChR hM4 cell-line. The compound number corresponds to the compound numbers used in Table I.

| Structure (SMILES) | Emax at 30 µM [%] | EC50 [µM] |
| --- | --- | --- |
| Cc1cnc2sc(C(=O)NC3CN(c4cccnc4)C3)cc2c1C [Compound 103, 4,5-dimethyl-N-(1-(pyridin-3-yl)azetidin-3-yl)thieno[2,3-b]pyridine-2-carboxamide] | 76 | 0.58 |
| Cc1nc2sc(C(=O)N3CC4C(C3)C4(C)C)c(-c3cnn(C)c3)c2c(C)c1Cl (stereo not drawn) [Compound 109, (5-chloro-4,6-dimethyl-3-(1-methyl-1H-pyrazol-4-yl)thieno[2,3-b]pyridin-2-yl)(6,6-dimethyl-3-azabicyclo[3.1.0]hexan-3-yl)methanone] | – | > 10 |
| Cc1nc2sc(C(=O)NC3CCCOC3)c(-c3cnn(C)c3)c2c(C)c1Cl (stereo not drawn) [Compound 88, 5-chloro-4,6-dimethyl-3-(1-methyl-1H-pyrazol-4-yl)-N-(tetrahydro-2H-pyran-3-yl)thieno[2,3-b]pyridine-2-carboxamide] | – | > 10 |
| Cc1nc2sc(C(=O)NC3CCC3)c(-c3cnn(C)c3)c2c(C)c1Cl [Compound 87, 5-chloro-N-cyclobutyl-4,6-dimethyl-3-(1-methyl-1H-pyrazol-4-yl)thieno[2,3-b]pyridine-2-carboxamide] | – | > 10 |
| Cc1nc2sc(C(=O)N3CCC(F)(F)CC3)c(-c3cnn(C)c3)c2c(C)c1Cl [Compound 108, (5-chloro-4,6-dimethyl-3-(1-methyl-1H-pyrazol-4-yl)thieno[2,3-b]pyridin-2-yl)(4,4-difluoropiperidin-1-yl)methanone] | – | > 10 |
| Cc1nc2sc(C(=O)NCC3CCC3)c(Cl)c2c(C)c1Cl [Compound 129, 3,5-dichloro-N-(cyclobutylmethyl)-4,6-dimethylthieno[2,3-b]pyridine-2-carboxamide] | – | > 10 |
| Cc1nc2sc(C(=O)NC3C4CC5CC(C4)CC3C5)c(-c3cnn(C)c3)c2c(C)c1Cl (stereo not drawn) [Compound 93, N-(adamantan-2-yl)-5-chloro-4,6-dimethyl-3-(1-methyl-1H-pyrazol-4-yl)thieno[2,3-b]pyridine-2-carboxamide] | – | > 10 |
| Cc1nc2sc(C(=O)NC3(C)COC3)c(Cl)c2c(C)c1Cl [Compound 122, 3,5-dichloro-4,6-dimethyl-N-(3-methyloxetan-3-yl)thieno[2,3-b]pyridine-2-carboxamide] | 61 | 2.6 |
| Cc1cc(C)c2c(Br)c(C(=O)N3CCCC3)sc2n1 [Example 3, (3-bromo-4,6-dimethylthieno[2,3-b]pyridin-2-yl)(pyrrolidin-1-yl)methanone] | 44 | 3.9 |
| Cc1nc2sc(C(=O)NC3CCS(=O)(=O)C3)c(-c3cnn(C)c3)c2c(C)c1Cl (stereo not drawn) [Compound 89, 5-chloro-N-(1,1-dioxidotetrahydrothiophen-3-yl)-4,6-dimethyl-3-(1-methyl-1H-pyrazol-4-yl)thieno[2,3-b]pyridine-2-carboxamide] | – | > 10 |
| Cc1cc(C)c2cc(C(=O)NC3CN(c4cccnc4)C3)sc2n1 [Compound 75, 4,6-dimethyl-N-(1-(pyridin-3-yl)azetidin-3-yl)thieno[2,3-b]pyridine-2-carboxamide] | 67 | 1.2 |
| Cc1nc2sc(C(=O)NCC3CCC3)c(-c3cnn(C)c3)c2c(C)c1Cl [Compound 105, 5-chloro-N-(cyclobutylmethyl)-4,6-dimethyl-3-(1-methyl-1H-pyrazol-4-yl)thieno[2,3-b]pyridine-2-carboxamide] | – | > 10 |
| Cc1nc2sc(C(=O)NCC3CC3)c(Cl)c2c(C)c1Cl [Compound 119, 3,5-dichloro-N-(cyclopropylmethyl)-4,6-dimethylthieno[2,3-b]pyridine-2-carboxamide] | – | > 10 |
| COc1ccc(CNC(=O)c2sc3nc(C)cc(C)c3c2-c2cnn(C)c2)cc1F [Compound 66, N-(3-fluoro-4-methoxybenzyl)-4,6-dimethyl-3-(1-methyl-1H-pyrazol-4-yl)thieno[2,3-b]pyridine-2-carboxamide] | – | > 10 |
| Cc1cc(C)c2c(C)c(C(=O)NCCN3CCOCC3)sc2n1 [Compound 30, 3,4,6-trimethyl-N-(2-morpholinoethyl)thieno[2,3-b]pyridine-2-carboxamide] | – | > 10 |
| Cc1nc2sc(C(=O)NC3CCC3)c(Cl)c2c(C)c1Cl [Compound 123, 3,5-dichloro-N-cyclobutyl-4,6-dimethylthieno[2,3-b]pyridine-2-carboxamide] | 34 | > 10 |

| Structure (SMILES) | Emax at 30 µM [%] | EC50 [µM] |
| --- | --- | --- |
| CCc1c(C(=O)NCc2ccc(S(C)(=O)=O)cc2)sc2nc(C)cc(C)c12 [Compound 38, 3-ethyl-4,6-dimethyl-N-(4-(methylsulfonyl)benzyl)thieno[2,3-b]pyridine-2-carboxamide] | 67 | 4.1 |
| Cc1nc2sc(C(=O)NC3CN(c4cccnc4)C3)c(-c3cnn(C)c3)c2c(C)c1Cl [Compound 92, 5-chloro-4,6-dimethyl-3-(1-methyl-1H-pyrazol-4-yl)-N-(1-(pyridin-3-yl)azetidin-3-yl)thieno[2,3-b]pyridine-2-carboxamide] | – | > 10 |
| Cc1nc2sc(C(=O)NC3COC3)c(Br)c2c(C)c1Cl [Compound 41, 3-bromo-5-chloro-4,6-dimethyl-N-(oxetan-3-yl)thieno[2,3-b]pyridine-2-carboxamide] | 84 | 0.53 |
| Cc1cc(C)c2c(C)c(C(=O)N3CCCC(F)(F)C3)sc2n1 [Compound 23, (3,3-difluoropiperidin-1-yl)(3,4,6-trimethylthieno[2,3-b]pyridin-2-yl)methanone] | – | > 10 |
| COc1ccc(C2CC2NC(=O)c2sc3nc(C)c(Cl)c(C)c3c2C2CC2)cc1 (stereo not drawn) [Compound 65, 5-chloro-3-cyclopropyl-N-(2-(4-methoxyphenyl)cyclopropyl)-4,6-dimethylthieno[2,3-b]pyridine-2-carboxamide] | – | > 10 |
| Cc1nc2sc(C(=O)NC3CC(F)(F)C3)c(Cl)c2c(C)c1Cl [Compound 128, 3,5-dichloro-N-(3,3-difluorocyclobutyl)-4,6-dimethylthieno[2,3-b]pyridine-2-carboxamide] | 33 | > 10 |
| COc1ccc(CNC(=O)c2cc3c(C)cc(C)nc3s2)cc1 [Compound 15, N-(4-methoxybenzyl)-4,6-dimethylthieno[2,3-b]pyridine-2-carboxamide] | 55 | 4 |
| Cc1cc(C)c2c(C)c(C(=O)NC3CCOC3)sc2n1 (stereo not drawn) [Compound 22, 3,4,6-trimethyl-N-(tetrahydrofuran-3-yl)thieno[2,3-b]pyridine-2-carboxamide] | 67 | > 10 |
| COc1ccc(C2CC2NC(=O)c2sc3nc(C)cc(C)c3c2-c2cnn(C)c2)cc1 (stereo not drawn) [Compound 68, N-(2-(4-methoxyphenyl)cyclopropyl)-4,6-dimethyl-3-(1-methyl-1H-pyrazol-4-yl)thieno[2,3-b]pyridine-2-carboxamide] | – | > 10 |
| COc1ccc(CNC(=O)c2sc3nc(C)cc(C)c3c2Br)cc1 [Compound 10, 3-bromo-N-(4-methoxybenzyl)-4,6-dimethylthieno[2,3-b]pyridine-2-carboxamide] | – | > 10 |
| COc1ccc(CNC(=O)c2sc3nc(C)c(Cl)c(C)c3c2C2CC2)cc1F [Compound 69, 5-chloro-3-cyclopropyl-N-(3-fluoro-4-methoxybenzyl)-4,6-dimethylthieno[2,3-b]pyridine-2-carboxamide] | – | > 10 |
| Cc1cnc2sc(C(=O)NC3CN(c4ccc(C(F)(F)F)nc4)C3)cc2c1C [Compound 100, 4,5-dimethyl-N-(1-(6-(trifluoromethyl)pyridin-3-yl)azetidin-3-yl)thieno[2,3-b]pyridine-2-carboxamide] | – | > 10 |
| Cc1cc(C)c2c(-c3cnn(C)c3)c(C(=O)NCc3ccc(S(C)(=O)=O)cc3)sc2n1 [Compound 36, 4,6-dimethyl-3-(1-methyl-1H-pyrazol-4-yl)-N-(4-(methylsulfonyl)benzyl)thieno[2,3-b]pyridine-2-carboxamide] | – | > 10 |
| Cc1nc2sc(C(=O)NC3CCOC3)c(C3CC3)c2c(C)c1Cl (stereo not drawn) [Compound 52, 5-chloro-3-cyclopropyl-4,6-dimethyl-N-(tetrahydrofuran-3-yl)thieno[2,3-b]pyridine-2-carboxamide] | 60 | 1.6 |
| Cc1cc(C)c2c(C)c(C(=O)N3CCCC3)sc2n1 [Compound 24, pyrrolidin-1-yl(3,4,6-trimethylthieno[2,3-b]pyridin-2-yl)methanone] | – | > 10 |
